Results published in patent publication US20250340939A1 (priority 2021, published 2025).
Entries after “also recorded” stand apart in the source; their conditions may differ.

How the values were obtained:
E. coli = experiment: Antimicrobial susceptibility testing (AST) with MST read-out of 16S rRNA; set-up: dose or concentration left out as unconfirmed; details: 5*10^5 bacteria; 90-150 minutes
Procedure: Kanamycin resistant E. coli bacteria, DH5α or BL-21, were maintained as frozen stocks at −80° C. in homemade L.B (Bacto tryptone 10 g/L, NaCl 10 g/L Bacto yest extract 5 g/L in autoclavable DDW) supplemented with 50% Glycerol as cryoprotective agent. Cultures were started from frozen stocks and cultivated at 37° C. overnight, at the presence of 30 μg/ml Kanamycin. After starter growth, bacteria amount was measured using optical density for further experiments.
Bacteria was grown as described in “bacterial growth” section and adjusted to 0.1 O.D for a second growing step after overnight starter. When reached 0.6 O.D, bacterial concentration adjusted to 7.143*10^5 bacteria/ml and 0.7 ml (5*10^5 bacteria) were divided to slit-cap Eppendorf tubes containing Ampicillin antibiotic or water as control. The tubes were placed in a temperature control thermo-mixer for further growth at 37° C. At an indicated time-point, tubes were taken out combined with RNA protect reagent for RNA extraction as previously described.

human total RNA = experiment: MST of 16S probe / Dox with human total RNA (specificity); format: binding; details: 100 μM Dox with 16S1^Cy5; blue mode
Procedure: (§1) In order to assess the effect of human RNA presence and Dox post-hybridization on signal response, 16S1^Cy5 was incubated with increasing concentrations of bacterial or human total RNA at 71° C. for 2 hours. Equal amounts were then taken for post-hybridization incubation with Dox or hybridization buffer as a control.
In order to compare signal sensitivity in the presence and absence of Dox, ΔFnorm[‰] values of human RNA were subtracted (ΔΔFnorm), and the ratios of ΔΔFnorm[‰] were compared.

[1] = MST of Dox alone in hybridization solution; format: physicochemical; details: 3.125-100 μM Dox; no RNA, no probes; blue mode
Procedure: In order to investigate the possibility that Dox monomers interact with each other, thereby causing Dox to migrate into the heating zone particularly at high Dox concentrations, Dox was incubated in hybridization solution without the presence of either S-gene RNA or the DNA probes.

S-gene RNA (SARS-CoV2) = format: binding
16S rRNA (E. coli) = experiment: MST of Cy5 probes hybridized with total bacterial RNA; format: binding
Procedure: For bacterial RNA extraction, DH5α E. coli cells transfected with pcDNA3.1+ plasmid were grown overnight in LB medium containing 100 μg/ml ampicillin. The concentration of bacterial cells was determined according to OD at 600 nm, and ˜7·10^8 cells were taken for RNA extraction. 1 volume of bacterial culture was mixed with 2 volumes of RNAprotect® Bacteria Reagent (QIAGEN), vortexed for 5 seconds and incubated for 5 minutes at room temperature. The sample was then centrifuged for 10 minutes at 5,000×g at room temperature. After discarding supernatant, the pellet was resuspended in 100 μl TE buffer (10 mM Tris-HCl, 1 mM EDTA, pH 8) containing 1 mg/ml lysozyme. The samples were vortexed for 5 seconds, and then incubated at room temperature for 10 minutes with vortexing every 2 minutes. 1 ml TRIzol™ reagent was added to the sample. The sample was incubated at room temperature for 5 minutes, and then RNA extraction was performed as described hereinabove.
RNA was extracted from a sample, and after extraction, the RNA pellet was solubilized and hybridized with a specific fluorescently labeled DNA probe in a hybridization solution (as schematically depicted in FIG. 1). After hybridization, the hybridized sample was loaded into an MST capillary and inserted into a Monolith™ MST instrument (NanoTemper Technologies GmbH, Germany). This instrument included a blue mode (493 nm excitation, […]) and red mode ([…], 670 nm emission) for detection, and an I.R laser (1475 nm+/−15 nm) for heating. The intensities for both fluorescence detection (LED) and IR laser are adjustable, in a range of 0%-100%, wherein the temperature gradient generated has a temperature difference of up to about 2-8° C. Thermophoretic force was induced by infrared laser after 1 second, and maintained for 2 seconds, for a total of a 3 second measurement window (measurement time may optionally be further reduced to 2 seconds using current available MST instruments).
For RNA titration measurements, the extracted RNA solution was diluted to X2 and a serial dilution was prepared in water. Hybridization solutions were prepared as described herein, were X1 solution consisted of SSC buffer X1, 0.05% TWEEN™ 20 surfactant, and 1% formamide unless indicated otherwise. Fluorescently labeled probes were diluted from a 100 μM stock to 1:2400 in hybridization solution X2, denatured for 5 minutes at 100° C. and then incubated on ice for 5 minutes. If a mixture of uniformly labeled probes was prepared, the probes were diluted to a 1:1200 dilution in water and then diluted to 1:2400 with hybridization solution X4 (1:1/number of probes) to create equal molarity of the fluorescent dye. The probe solution was combined with the titration series in a 1:1 (v/v) ratio (10 μL total volume) and allowed to hybridize at a defined temperature for a given time as described. If post-hybridization with intercalating agents (ICA), doxorubicin or Midori™ Green, was performed, the samples were combined with ICA X5 solution 4:1 (v:v) ratio, 8 μL and 2 μL respectively. For cell based measurements, after extraction, the RNA pellet was solubilized and hybridized with a specific fluorescently labeled DNA probe in a hybridization solution (as schematically depicted in FIG. 1).
In order to determine the optimal hybridization temperature, one of the designed probes (16S1^Cy5) was incubated with increasing concentrations of bacterial RNA at different temperatures for 10 minutes. MST measurements were then performed using the red wavelength acquisition mode.
as §1, with “control. […]” for “control.”

SMILES	growth of E. coli bacteria in the presence of antibiotic (E. coli)	Dox signal dependence on RNA concentration (human total RNA)	degree of Dox migration into the heating zone [1]	effect of Dox on slope of S^Cy5 linear regression (analytical sensitivity) (S-gene RNA (SARS-CoV2); 100 μM Dox vs 0, 1 or 10 μM Dox)	effect of S-gene RNA concentration on Dox signal without DNA probe (S-gene RNA (SARS-CoV2); 100 μM Dox, no S^Cy5 probe, blue mode)	Dox fluorescence dependence on S-gene RNA concentration (S-gene RNA (SARS-CoV2); 1, 10 or 100 μM Dox, S^Cy5 present, blue mode)	effect of Dox on initial fluorescence intensity of S^Cy5 (S-gene RNA (SARS-CoV2); 1, 10 or 100 μM Dox, dose-dependent, prior to temperature gradient)	effect of Dox on signal sensitivity of 16S probes (16S rRNA (E. coli); 100 μM Dox post-hybridization)	Dox signal dependence on RNA concentration (16S rRNA (E. coli); 100 μM Dox with 16S1^Cy5, blue mode)
CC1(C)S[C@@H]2[C@H](NC(=O)[C@H](N)c3ccccc3)C(=O)N2[C@H]1C(=O)O [Ampicillin]	no growth was observed								
COc1cccc2c1C(=O)c1c(O)c3c(c(O)c1C2=O)C[C@@](O)(C(=O)CO)C[C@@H]3O[C@H]1C[C@H](N)[C@H](O)[C@H](C)O1 [Dox, doxorubicin, reference compound]		dependent on the concentrations of both human RNA and bacterial RNA	correlated to Dox concentration	steeper slope	did not noticeably affect the change in signal	dependent on S-gene RNA concentration	decreased the initial fluorescence intensity values	increased signal sensitivity; also recorded: enhanced signal sensitivity to a considerable extent	dependent on the concentrations of both human RNA and bacterial RNA
